Experimental data as given in PubChem BioAssay (NCI).
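Exposure lasted 48 hours, with cells grown in 96-well plates and compounds tested at five concentrations. Abbreviation: GI50, concentration required for 50% inhibition of growth. TGI: total growth inhibition.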

Columns and labels:
Assay in all cases: DTP human tumour cell line panel, 48 h
SW-620 colon = tested on: SW-620 colon
NCI-H226 lung = tested on: NCI-H226 lung
A549 NSCLC = tested on: A549 NSCLC
HL-60(TB) leukemia = tested on: HL-60(TB) leukemia
SNB-75 CNS = tested on: SNB-75 CNS
A498 renal = tested on: A498 renal
SR leukemia = tested on: SR leukemia
SF-539 CNS = tested on: SF-539 CNS
RPMI-8226 leukemia = tested on: RPMI-8226 leukemia
HCT-15 colon = tested on: HCT-15 colon
OVCAR-5 ovarian = tested on: OVCAR-5 ovarian
M14 melanoma = tested on: M14 melanoma
SK-OV-3 ovarian = tested on: SK-OV-3 ovarian
MDA-MB-435 = tested on: MDA-MB-435
SN12C renal = tested on: SN12C renal
ACHN renal = tested on: ACHN renal
UACC-257 melanoma = tested on: UACC-257 melanoma
T-47D breast = tested on: T-47D breast
OVCAR-4 ovarian = tested on: OVCAR-4 ovarian
MDA-MB-468 breast = tested on: MDA-MB-468 breast
PC-3 prostate = tested on: PC-3 prostate
MALME-3M melanoma = tested on: MALME-3M melanoma
HS 578T breast = tested on: HS 578T breast
CCRF-CEM leukemia = tested on: CCRF-CEM leukemia
MCF7 breast = tested on: MCF7 breast
786-0 renal = tested on: 786-0 renal
UACC-62 melanoma = tested on: UACC-62 melanoma
SF-295 CNS = tested on: SF-295 CNS
DU-145 prostate = tested on: DU-145 prostate
BT-549 breast = tested on: BT-549 breast
SF-268 CNS = tested on: SF-268 CNS
CAKI-1 renal = tested on: CAKI-1 renal
MOLT-4 leukemia = tested on: MOLT-4 leukemia
RXF 393 renal = tested on: RXF 393 renal
HT29 colon = tested on: HT29 colon
HOP-62 NSCLC = tested on: HOP-62 NSCLC
KM12 colon = tested on: KM12 colon
OVCAR-8 ovarian = tested on: OVCAR-8 ovarian
HCC-2998 colon = tested on: HCC-2998 colon
NCI-H522 lung = tested on: NCI-H522 lung
SK-MEL-28 melanoma = tested on: SK-MEL-28 melanoma
LOX IMVI melanoma = tested on: LOX IMVI melanoma
NCI-H23 lung = tested on: NCI-H23 lung
COLO 205 colon = tested on: COLO 205 colon
SK-MEL-2 melanoma = tested on: SK-MEL-2 melanoma
SNB-19 CNS = tested on: SNB-19 CNS
EKVX NSCLC = tested on: EKVX NSCLC
HCT-116 colon = tested on: HCT-116 colon
SK-MEL-5 melanoma = tested on: SK-MEL-5 melanoma
UO-31 renal = tested on: UO-31 renal
U251 CNS = tested on: U251 CNS
NCI-H460 lung = tested on: NCI-H460 lung
IGROV1 ovarian = tested on: IGROV1 ovarian
K-562 leukemia = tested on: K-562 leukemia
OVCAR-3 ovarian = tested on: OVCAR-3 ovarian
TK-10 renal = tested on: TK-10 renal
HOP-92 NSCLC = tested on: HOP-92 NSCLC
MDA-MB-231 breast = tested on: MDA-MB-231 breast

COc1cc(/C=N/NC(=O)c2ccc3nc(-c4ccc(Cl)cc4)[nH]c3c2)cc(OC)c1OC
GI50 (SW-620 colon): 4.4 µM | TGI (SW-620 colon): 17.4 µM | GI50 (NCI-H226 lung): 1.31 µM | TGI (NCI-H226 lung): 16.1 µM | GI50 (A549 NSCLC): 7.55 µM | TGI (A549 NSCLC): 38.4 µM | GI50 (HL-60(TB) leukemia): 3.9 µM | TGI (HL-60(TB) leukemia): 60.4 µM | GI50 (SNB-75 CNS): 1.28 µM | TGI (SNB-75 CNS): 6.68 µM | GI50 (A498 renal): 26.4 µM | TGI (A498 renal): 77.6 µM | GI50 (SR leukemia): 3.76 µM | TGI (SR leukemia): 19.1 µM | GI50 (SF-539 CNS): 2.02 µM | TGI (SF-539 CNS): 6.98 µM | GI50 (RPMI-8226 leukemia): 3.21 µM | TGI (RPMI-8226 leukemia): > 100 µM | GI50 (HCT-15 colon): 73 µM | TGI (HCT-15 colon): > 100 µM | GI50 (OVCAR-5 ovarian): 15.6 µM | TGI (OVCAR-5 ovarian): 41.2 µM | GI50 (M14 melanoma): 3.77 µM | TGI (M14 melanoma): 21.1 µM | GI50 (SK-OV-3 ovarian): 15 µM | TGI (SK-OV-3 ovarian): 38.1 µM | GI50 (MDA-MB-435): 4.13 µM | TGI (MDA-MB-435): 15.3 µM | GI50 (SN12C renal): 3.22 µM | TGI (SN12C renal): 11 µM | GI50 (ACHN renal): 7.93 µM | TGI (ACHN renal): > 100 µM | GI50 (UACC-257 melanoma): 4.67 µM | TGI (UACC-257 melanoma): 18.8 µM | GI50 (T-47D breast): 3.48 µM | TGI (T-47D breast): 21 µM | GI50 (OVCAR-4 ovarian): 2.35 µM | TGI (OVCAR-4 ovarian): 7.29 µM | GI50 (MDA-MB-468 breast): 3.27 µM | TGI (MDA-MB-468 breast): 10.1 µM | GI50 (PC-3 prostate): 5.73 µM | TGI (PC-3 prostate): > 100 µM | GI50 (MALME-3M melanoma): 1.12 µM | TGI (MALME-3M melanoma): 3.36 µM | GI50 (HS 578T breast): 2.58 µM | TGI (HS 578T breast): 7 µM | GI50 (CCRF-CEM leukemia): 6.27 µM | TGI (CCRF-CEM leukemia): > 100 µM | GI50 (MCF7 breast): 0.663 µM | TGI (MCF7 breast): 12.5 µM | GI50 (786-0 renal): 4.88 µM | TGI (786-0 renal): 18.7 µM | GI50 (UACC-62 melanoma): 1.24 µM | TGI (UACC-62 melanoma): 12.2 µM | GI50 (SF-295 CNS): 4.18 µM | TGI (SF-295 CNS): 15.9 µM | GI50 (DU-145 prostate): 6.77 µM | TGI (DU-145 prostate): 20.9 µM | GI50 (BT-549 breast): 2.69 µM | TGI (BT-549 breast): 9.27 µM | GI50 (SF-268 CNS): 4.4 µM | TGI (SF-268 CNS): 20.5 µM | GI50 (CAKI-1 renal): 11.2 µM | TGI (CAKI-1 renal): 30.8 µM | GI50 (MOLT-4 leukemia): 3.58 µM | TGI (MOLT-4 leukemia): 28.1 µM | GI50 (RXF 393 renal): 2.22 µM | TGI (RXF 393 renal): 9.02 µM | GI50 (HT29 colon): 2.98 µM | TGI (HT29 colon): 15.5 µM | GI50 (HOP-62 NSCLC): 4.68 µM | TGI (HOP-62 NSCLC): 16.4 µM | GI50 (KM12 colon): 4.5 µM | TGI (KM12 colon): 17.9 µM | GI50 (OVCAR-8 ovarian): 3.87 µM | TGI (OVCAR-8 ovarian): 18.9 µM | GI50 (HCC-2998 colon): 11.1 µM | TGI (HCC-2998 colon): 29.3 µM | GI50 (NCI-H522 lung): 4.9 µM | TGI (NCI-H522 lung): 20.9 µM | GI50 (SK-MEL-28 melanoma): 1.83 µM | TGI (SK-MEL-28 melanoma): 6.78 µM | GI50 (LOX IMVI melanoma): 4.67 µM | TGI (LOX IMVI melanoma): 16.1 µM | GI50 (NCI-H23 lung): 4.72 µM | TGI (NCI-H23 lung): 18.8 µM | GI50 (COLO 205 colon): 2.84 µM | TGI (COLO 205 colon): 24.4 µM | GI50 (SK-MEL-2 melanoma): 11 µM | TGI (SK-MEL-2 melanoma): 25 µM | GI50 (SNB-19 CNS): 3.42 µM | TGI (SNB-19 CNS): 10.5 µM | GI50 (EKVX NSCLC): 14.8 µM | TGI (EKVX NSCLC): 97.2 µM | GI50 (HCT-116 colon): 3.26 µM | TGI (HCT-116 colon): 10.6 µM | GI50 (SK-MEL-5 melanoma): 2.83 µM | TGI (SK-MEL-5 melanoma): 12.2 µM | GI50 (UO-31 renal): > 100 µM | TGI (UO-31 renal): > 100 µM | GI50 (U251 CNS): 2.59 µM | TGI (U251 CNS): 5.9 µM | GI50 (NCI-H460 lung): 3.19 µM | TGI (NCI-H460 lung): 10.2 µM | GI50 (IGROV1 ovarian): 11 µM | TGI (IGROV1 ovarian): 30.8 µM | GI50 (K-562 leukemia): 1.96 µM | TGI (K-562 leukemia): 6.33 µM | GI50 (OVCAR-3 ovarian): 2.28 µM | TGI (OVCAR-3 ovarian): 4.88 µM | GI50 (TK-10 renal): 28.8 µM | TGI (TK-10 renal): > 100 µM | GI50 (HOP-92 NSCLC): 5.95 µM | TGI (HOP-92 NSCLC): 23.2 µM | GI50 (MDA-MB-231 breast): 3.39 µM | TGI (MDA-MB-231 breast): 11.1 µM
